# Data: US20180282279A1, “Pantothenamide Analogues” (Radboud Universitair Medisch Centrum, priority 2014, published 2018)
# pIC50: −log10 of the molar value.
# What was measured:
# [1] = system: Plasmodium falciparum NF54 parasites; assay: P. falciparum asexual blood stage replication assay (SYBR Green); type: cell-based; conditions: NF54, 10% human serum, 72 incubation
# Method: Compounds were tested on their ability to inhibit replication of the human malaria parasite Plasmodium falciparum. To this end, Plasmodium falciparum NF54 parasites were cultured in RPMI1640 medium supplemented with 367 μM hypoxanthine, 25 mM HEPES, 25 mM sodiumbicarbonate and 10% human type A serum in an automated large-scale culture system as described before (Transactions of the Royal Society of Tropical Medicine and Hygiene, 1982. 76: p. 812-818). Compounds were diluted in DMSO and subsequently in culture medium to reach a DMSO concentration of 0.2%. 50 μl of diluted compound was transferred to a black 96 well plate. A culture of P. falciparum strain NF54 malaria parasites was diluted to a parasitaemia of 0.5% and a hematocrit of 3%. 50 μl of this diluted culture was added to each well in the 96 well plate._The outermost wells of the plate were filled with sterile water to prevent evaporation. The established antimalarial dihydroartemisinin (DHA) in DMSO acted as a positive control (MIN signal), and 0.1% DMSO acted as a negative control (MAX signal). The plates were incubated for 72 at 37° C., 3% 02, 5% CO2, 93% N2. Changes in parasite replication relative to the controls were monitored using the DNA-marker SYBR Green as described previously (Antimicrob Agents Chemother 48:1803-6). Data were analyzed by logistic regression using the formula: Y=Bottom+(Top-Bottom)/(1+10̂((Log IC50−X)*HillSlope)) and a least squares method to find the best fit.
# Using similar methods, IC50 values were determined for a variety of inverted pantothenamides, as listed in table 1 (see section: ‘Detailed description of the invention’)
# [2] = system: P. falciparum gametocytes; assay: Gametocyte female gametogenesis capacity assay (Pfs25 AlphaLISA); type: cell-based; conditions: Plasmodium falciparum, 72 hours incubation
# Method: To monitor compound effects on the ability of a gametocyte to form a female gamete, day 11 (stage IV) gametocytes were seeded at a density of 4×10^5 gametocytes per well in a V-bottom plate in 50 μl culture medium. 50 μl of diluted compound was added to the gametocytes (0.1% DMSO final concentration) and plates were incubated for 72 hours at 37° C., 98% humidity, 93% N2, 4% CO2 and 3% O2. Subsequently, gametogenesis was induced by adding xanthurenic acid to a final concentration of 40 μM and plates were incubated for 16 hours at 20° C. Gametes were detected in a homogeneous proximity immunoassay on basis of Pfs25 expression by use of AlphaLISA technology (Perkin Elmer). All steps were performed at 20° C. Gametes were washed twice with PBS, lysed for 15 min in 10 μl 10 mM Tris pH 8.0/1% laurylsarcosyl/1 mM phenylmethanesulfonyl fluoride and combined with 10 μl 5 nM biotinylated mouse anti-Pfs25 monoclonal antibody 32F6244 in a white 384 well optiplate (Perkin Elmer). After 1 hour incubation 15 μl of 33 μg/ml acceptorbeads coated with mouse anti-Pfs25 monoclonal antibody 32F81 were added. After 1 hour incubation, 15 μl 33 μg/ml Streptavidin-conjugated donorbeads were added. Finally, after 1 hour incubation luminescence signals were monitored at the 615 nm emission wavelength following excitation at 680 nm using a fluorometer (Biotek Synergy 2). All compounds were tested in duplicate (24 hr) or triplicate (1 and 72 hr). Controls included MIN (0.1 μM epoxomicin) and MAX (0.1% DMSO). Data were analyzed by logistic regression using the formula: Y=Bottom+(Top−Bottom)/(1+10̂((Log IC50−X)*HillSlope)) and a least squares method to find the best fit.
# [3] = system: P. falciparum gametocytes; assay: microbe, parasite or virus in culture; type: cell-based, Plasmodium falciparum; conditions: for pIC50: 72 hour incubation, read-out: Gametocyte viability (pLDH) IC50; for effect on gametocyte viability (pLDH activity): FIG. 4A; for extent of inhibition of gametocyte viability: compared with reference compound DHA
# Method: Compounds were tested for their ability to affect the viability of gametocytes, the sexually committed blood stages of P. falciparum that underlie transmission to the mosquito vector. To this end, two different assays were performed. The first assay monitored pLDH activity as a measure of viability of gametocytes (J Antimicrob Chemother. 2013 September; 68(9):2048-58). The second assay monitored the ability of gametocytes to form a female gamete by detection of the gamete-specific marker Pfs25. Plasmodium falciparum NF54 parasites were cultured in RPMI1640 medium supplemented with 367 μM hypoxanthine, 25 mM HEPES, 25 mM sodiumbicarbonate and 10% human type A serum in an automated large-scale culture system as described before (Transactions of the Royal Society of Tropical Medicine and Hygiene, 1982. 76: p. 812-818). Cultures were treated with 50 mM N-acetyl-D-glucosamine from day 4 till day 9 to kill asexual parasites. On day 11 gametocytes were isolated by discontinuous 63% Percoll gradient centrifugation. Compounds were diluted in DMSO and subsequently in culture medium to reach a DMSO concentration of 0.2%. To measure the effect of compounds of pLDH activity, gametocytes were seeded at a density of 3.5×10^4 gametocytes per well in a black 384 well plate in 30 μl of culture medium, and 30 μl of diluted compound was added. Following a 72 hour incubation at 37° C., 98% humidity, 93% N2, 4% CO2 and 3% O2, gametocyte viability was measured by a modified plasmodium lactate dehydrogenase assay by using resazurin as a substrate as previously described (Nature, 2013. 504(7479): p. 248-53). Assays were performed in quadruplicate (two different plates with two different gametocyte batches) and all plates included controls MIN (1 μM DHA), MAX (0.1% DMSO) and a serial dilution of reference compound dihydroartemisinin (DHA).
# [4] = system: P. falciparum asexual blood stage parasites; assay: Asexual replication assay in competition with pantothenate; type: cell-based, Plasmodium falciparum; conditions: log dose ratio −1 vs log pantothenate concentration
# Method: FIG. 3: Competition between pantothenic acid and inverted-amide pantothenamide. Asexual replication assays were performed in combinations of pantothenic acid (PA) and CXP18.6-017 (A), CXP18.6-026 (B) and CXP18.6-052 (C). The relative number of parasites was determined by a Sybrgreen DNA detection method. Data are expressed relative to the MAX (0.1% DMSO) and MIN (10 μM DHA) controls. Error bars indicate standard deviations from two independent observations. D) S child regression analysis of combinations of CXP18.6-052 and pantothenic acid.
# To study their interaction with pantothenate-dependent pathways, asexual replication assays were performed with CXP18.6-017, CXP18.6-026 and CXP18.6-052 in the presence of increasing amounts pantothenate. When combining a pantothenamide analogue and pantothenate in the same well the conditions were otherwise similar to the single compound assays described above, however the final DMSO concentration was 0.2%, which was also adjusted for the positive and negative controls.
# [5] = Table 3, read-out: Gametocyte gametogenesis capacity (Pfs25) IC50
# [6] = FIG. 4B, read-out: female gametogenesis capacity of gametocytes IC50
SMILES,IC50 [1] [µM],"pIC50 [2, 5]",pIC50 ([3]; Plasmodium falciparum),Schild regression analysis with pantothenate [4],"pIC50 [2, 6]",effect on gametocyte viability (pLDH activity) [3],extent of inhibition of gametocyte viability [3],"maximum inhibition of gametocyte viability ([3]; Plasmodium falciparum, 72 h) [%]"
CC(C)(CO)[C@@H](O)C(=O)NCCNC(=O)CCc1ccccc1 [CXP18.6-006],0.12,6.32,< 5.00,,,,,
CC(C)(CO)[C@@H](O)C(=O)NCCNC(=O)CCc1ccccc1F [CXP18.6-017],0.022,7.44,7.00,did not reveal a linear correlation,7.43,dose dependently reduced gametocyte viability,to the same extent as the reference compound DHA,
Cc1ccc(CCC(=O)NCCNC(=O)[C@H](O)C(C)(C)CO)cc1 [CXP18.6-026],0.16,7.89,6.77,did not reveal a linear correlation,7.89,dose dependently reduced gametocyte viability,to the same extent as the reference compound DHA,
CC(C)(CO)[C@@H](O)C(=O)NCCNC(=O)CCc1cccnc1 [CXP18.6-052],0.008,,,competitive antagonism,5.70,dose dependently reduced gametocyte viability,,~50
